Measured values taken from patent US20090311237A1, “Combination therapy using a soluble hyaluronidase and a bisphosphonate” (priority 2008, published 2009).

Key:
Sprague Dawley rats = experiment: Injection site reactions (gross ISR incidence, lesion area) after intradermal injection of zoledronic acid with or without rHuPH20; format: in vivo, rat; details: for AUC (accumulated ISR area over 6 days) / Peak lesion area: rat ID 0.1 mL, rHuPH20 0 U/mL
Protocol: A rodent model of local injection site injury caused by ZA injection was employed for the study. […] Injection into the dermis facilitates external visualization and assessment of the irritant.
Nine to ten week old female Sprague Dawley rats, having approximate body weight of 200-250 grams, were employed for the study. One day prior to injection, rats were shaved and hair on the back and flank area were removed by Nair® cream (exposure less than 1 min to depilation cream) followed by deep wash with warm tap water. On the day of dosing, all rats were injected intradermally in flank area (one or two injection spots per side), with 0.1 or 0.2 mL as indicated of zoledronic acid solution, with or without rHuPH20, at each corresponding concentration as shown in study design table. Injection site appearance was observed and quantified by blind assessment each day following the injection until the end of the study, at which time animals were sacrificed and the skin around the dosing area as well as a part of the skin that was not effected by the dosing were collected and fixed in 10% neutral buffered formalin (NBF) and further embedded in paraffin, 5 μm sections were cut for H&E stain and histopathology evaluation.
Lesion area was calculated by the following formula: W×L×¼π. Quantitative results were analyzed using one-way analysis of variance (ANOVA) method, followed by Dunnett's comparison method (Prizm 4 program). The probability values of less than 0.05 (two-tailed) were used as the critical level of significance for all tests. Groups with a sample size of two were excluded from analysis. If the sample size was 2 for the control group, there were no statistical analyses at that interval for any of the groups. Histopathologic findings were characterized by semi-quantitative analysis of necrosis and infiltration in the skin tissue. The incidences of each finding were compared with control groups by Chi-square test.
Prior to ZA intradermal injection, rats were randomized by body weight into 7 groups of 1 or 2 rats per group (Table 2). Rats were injected with either 0.1 mL or 0.2 mL of each corresponding concentration intradermally at two separate locations on each shaved flank side for a total of 4 injections for each animal. Injection sites were observed daily post-injection for four days. Pictures of injection site reaction (ISR) area were captured by digital camera and lesion area was scored for induration, erythema, or ulceration. Two perpendicular diameters (width & length) of injection site lesion were measured by microcaliper. The lesion area was defined as the area bounded by the outer edge of the erythemic zone. Upon completion of the study, the animals were euthanized and skin at the injection site and from an untreated area of the back of the rat were excised, mounted flat onto a piece of cardboard, and placed in 10% NBF.
A series of experiments were conducted in which various dosing concentrations of rHuPH20 were tested for the ability to reduce acute injection site lesions. Prior to ZA intra-dermal injection, rats were randomized by body weight into 11 groups of 2 rats per group. Rats were injected intradermally with 0.1 mL of each co-formulated solution as shown in Table 5 and observed daily with ISR development assessed as in Section B. Four days after injection, rats were sacrificed and the skin at the injection site as well as untreated skin from the back was excised, mounted flat onto a piece of cardboard, and placed in 10% NBF.
Prior to ZA intra-dermal injection, rats were randomized by body weight into 6 groups of 3 rats per group (Table 6). Rats were intradermally injected with 0.1 mL of each corresponding co-formulated solution at two separate locations, two on each shaved flank side, for a total of 4 injections for each animal. Injection sites were observed daily with ISR development assessed as in Section B for 6 days. […]

[1] = Urinary excretion of unchanged ZA in pigs; format: in vivo, pig; details: for Dose Amt 2 hr, Mean / Dose Amt 2 hr, Median: n 4; for mean percent of dose excreted unchanged in urine: pig, first 2 hours post dose
Protocol: Following ZA dose administration, serial blood samples were collected via vascular access ports (VAPs) for serum preparation and determination of ZA concentrations. […] Urine samples were also collected to compare excretion characteristics between IV and SC routes of administration.
Serum concentration of ZA was determined using a qualified LC-MS-MS assay after derivatization with diazomethane (Zhu, L S et al. (2006) Rapid Commun. Mass Spectrom. 20: 3421-3426; “Qualification Data of An LC-MS/MS Method for the Determination of Zoledronate in Porcine Serum”, MDS Pharma Services Study No. AA43671-01, Report Date 14 Sep. 2007). The assay range was from 2.0 to 400 ng/mL with a lower limit of quantitation (LLOQ) at 2.0 ng/mL. Urine concentration of ZA was determined by a similar well qualified LC-MS-MS method (“Qualification Data of An LC-MS/MS Method for the Determination of Zoledronate in Porcine Urine”, MDS Pharma Services Study No. AA43671-02, Report Date 14 Sep. 2007) with an assay LLOQ at 10 ng/mL.
Amount of ZA excreted unchanged in urine was determined for the collection interval from dosing to 2-hour post dose and compared between dose routes and co-administration with rHuPH20.
Urine sample volumes and concentration of ZA in the samples were used to calculate the amount of unchanged ZA excreted via the kidneys. Since continuous collection was halted at 2 hours post dose, the percent of administered ZA dose that were renally excreted was not determined. However, the percent of dose excreted within the 2-hour collection interval was estimated with the relationship that the systemically available SC ZA dose is equal to: […]

[2] = rats; single IV administration of 1.6 mg/kg; cited from earlier work
[3] = Study Group 1, IV infusion, ZA […], dosing to 2 h post dose, n 3
[4] = Study Group 2, SC, […] dose only
[5] = Study Group 2, SC, n 5, dosing to 2 h post dose
[6] = Study Group 3, SC with rHuPH20, […] dose only
[7] = Study Group 3, SC with rHuPH20, n 4, dosing to 2 h post dose

Q: With `O=P(O)(O)C(O)(Cn1ccnc1)P(=O)(O)O` [ZA, 1-hydroxy-2-(1H-imidazol-1-yl)ethylidene-1,1-bisphosphonic acid] as the molecule, how does the “AUC (accumulated ISR area over 6 days)” value (Sprague Dawley rats; ZA 0.05 mg/mL) read?
A: 110.8 ± 5.6 mm^2 · day

Q: What about the Peak lesion area (Sprague Dawley rats; ZA 0.05 mg/mL) of the same molecule?
A: 28.8 ± 1.8 mm^2

Q: What about the “AUC (accumulated ISR area over 6 days)” value (Sprague Dawley rats; ZA 0.1 mg/mL) of the same molecule?
A: 108.3 ± 6.9 mm^2 · day

Q: And the Peak lesion area (Sprague Dawley rats; ZA 0.1 mg/mL)?
A: 32.3 ± 2.7 mm^2

Q: What about the “AUC (accumulated ISR area over 6 days)” value (Sprague Dawley rats; ZA 0.4 mg/mL) of the same molecule?
A: 226.5 ± 9.1 mm^2 · day

Q: And the Peak lesion area (Sprague Dawley rats; ZA 0.4 mg/mL)?
A: 62.9 ± 5.1 mm^2

Q: And the erythema area (Sprague Dawley rats; rat ID, ZA alone 0.05-0.2 mg/ml)?
A: ~35 mm^2

Q: And the “Dose Excreted, Mean” value [1, 3]?
A: 11.40%

Q: What about the “Dose Excreted, Median” value [1, 3] of the same molecule?
A: 10.71%

Q: And the “Dose Amt 2 hr, Mean” value [1, 4]?
A: 2.87 mg

Q: And the “Dose Amt 2 hr, Median” value [1, 4]?
A: 2.88 mg

Q: What about the “Dose Excreted, Mean” value [1, 5] of the same molecule?
A: 9.45%

Q: What about the “Dose Excreted, Median” value [1, 5] of the same molecule?
A: 6.73%

Q: What about the “Dose Amt 2 hr, Mean” value [1, 6] of the same molecule?
A: 3.00 mg

Q: And the “Dose Amt 2 hr, Median” value [1, 6]?
A: 3.03 mg

Q: What about the “Dose Excreted, Mean” value [1, 7] of the same molecule?
A: 10.66%

Q: And the “Dose Excreted, Median” value [1, 7]?
A: 12.04%

Q: What about the “Dose Amt 2 hr (SC AUC(0-2 h) × CL × body weight)” value ([1]; pig 56, Study Group 3, SC with rHuPH20, ZA […]) of the same molecule?
A: 3.06 mg

Q: What about the “Dose Excreted (unchanged in urine)” value ([1]; pig 57, Study Group 1, IV infusion, ZA […], dosing to 2 h post dose) of the same molecule?
A: 13.23%

Q: And the “Dose Amt 2 hr (SC AUC(0-2 h) × CL × body weight)” value ([1]; pig 58, Study Group 3, SC with rHuPH20, ZA […])?
A: 3.03 mg

Q: And the “Dose Excreted (unchanged in urine)” value ([1]; pig 58, Study Group 3, SC with rHuPH20, ZA […], dosing to 2 h post dose)?
A: 0.41%

Q: And the “Dose Amt 2 hr (SC AUC(0-2 h) × CL × body weight)” value ([1]; pig 59, Study Group 2, SC, ZA […])?
A: 1.44 mg

Q: And the “Dose Excreted (unchanged in urine)” value ([1]; pig 59, Study Group 2, SC, ZA […], dosing to 2 h post dose)?
A: 5.10%

Q: And the “Dose Amt 2 hr (SC AUC(0-2 h) × CL × body weight)” value ([1]; pig 60, Study Group 2, SC, ZA […])?
A: 3.28 mg

Q: What about the “Dose Excreted (unchanged in urine)” value ([1]; pig 60, Study Group 2, SC, ZA […], dosing to 2 h post dose) of the same molecule?
A: 6.73%

Q: And the “Dose Excreted (unchanged in urine)” value ([1]; pig 61, Study Group 1, IV infusion, ZA […], dosing to 2 h post dose)?
A: 10.71%

Q: What about the “Dose Amt 2 hr (SC AUC(0-2 h) × CL × body weight)” value ([1]; pig 62, Study Group 2, SC, ZA […]) of the same molecule?
A: 2.42 mg

Q: And the “Dose Excreted (unchanged in urine)” value ([1]; pig 62, Study Group 2, SC, ZA […], dosing to 2 h post dose)?
A: 20.08%

Q: What about the “Dose Amt 2 hr (SC AUC(0-2 h) × CL × body weight)” value ([1]; pig 64, Study Group 3, SC with rHuPH20, ZA […]) of the same molecule?
A: 2.86 mg

Q: What about the “Dose Excreted (unchanged in urine)” value ([1]; pig 64, Study Group 3, SC with rHuPH20, ZA […], dosing to 2 h post dose) of the same molecule?
A: 12.29%

Q: And the “Dose Amt 2 hr (SC AUC(0-2 h) × CL × body weight)” value ([1]; pig 66, Study Group 3, SC with rHuPH20, ZA […])?
A: 1.22 mg

Q: And the “Dose Excreted (unchanged in urine)” value ([1]; pig 66, Study Group 3, SC with rHuPH20, ZA […], dosing to 2 h post dose)?
A: 18.13%

Q: And the “Dose Excreted (unchanged in urine)” value ([1]; pig 67, Study Group 1, IV infusion, ZA […], dosing to 2 h post dose)?
A: 10.25%

Q: And the “Dose Amt 2 hr (SC AUC(0-2 h) × CL × body weight)” value ([1]; pig 68, Study Group 3, SC with rHuPH20, ZA […])?
A: 3.03 mg

Q: And the “Dose Excreted (unchanged in urine)” value ([1]; pig 68, Study Group 3, SC with rHuPH20, ZA […], dosing to 2 h post dose)?
A: 11.79%

Q: What about the “Dose Amt 2 hr (SC AUC(0-2 h) × CL × body weight)” value ([1]; pig 69, Study Group 2, SC, ZA […]) of the same molecule?
A: 2.83 mg

Q: What about the “Dose Excreted (unchanged in urine)” value ([1]; pig 69, Study Group 2, SC, ZA […], dosing to 2 h post dose) of the same molecule?
A: 10.19%

Q: What about the “Dose Amt 2 hr (SC AUC(0-2 h) × CL × body weight)” value ([1]; pig 70, Study Group 2, SC, ZA […]) of the same molecule?
A: 2.93 mg

Q: And the “Dose Excreted (unchanged in urine)” value ([1]; pig 70, Study Group 2, SC, ZA […], dosing to 2 h post dose)?
A: 5.17%

Q: And the “mean percent of dose excreted unchanged in urine” value ([1]; Study Group 1 (IV […]))?
A: 11.40%

Q: What about the “mean percent of dose excreted unchanged in urine” value ([1]; Study Group 2 (SC ZA without rHuPH20)) of the same molecule?
A: 9.45%

Q: And the injection site finding [2]?
A: local irritation at the injection site
